Assay: BAC scores by breathalyzer and observed behavior in subjects who had voluntarily consumed alcohol, compared with projected BAC
Format: in vivo, human
Set-up: actual BAC score / actual BAC: unit not given here
Settings: for signs of intoxication: twenty minutes after administration; for effect on the subject's BAC score, summary of the experiments: actual vs projected BAC over the course of the experiment; for change in BAC twenty minutes after administration: summary over subjects
Source text: The following experiments involved subjects who voluntarily consumed alcoholic beverages. The subjects chose the type and amount of alcohol that was consumed, as well as the rate at which the alcohol was consumed. At the point when the subjects started to feel effects of their alcohol consumption and chose to stop consuming alcohol, the subjects voluntarily consumed a composition that contained a source of NAD+, Lactobacillus, Bifidobacterium, or a combination of two or more of those ingredients. Projected BAC scores were calculated approximately every twenty minutes using an online BAC calculator provided by the Wisconsin Department of Transportation, which provides a projected BAC based on factors such as the subject's weight, sex, alcohol consumed, rate of alcohol consumed, and food consumed. BAC scores were also quantitatively measured approximately every twenty minutes using a breathalyzer. The projected BAC score served as a negative control because it estimates the change in BAC that is expected to occur over time after a subject stops consuming alcohol. Changes in each subject's behavior were also observed over the course of the experiment.
The ingredients that were administered to the subjects are commercially available and sold for human consumption. In the following experiments, NAD+ was provided by administering 5 mL of Liquid CoQ10, which is made by NOW Foods and contains 5 mg NAD+ in the 5 mL dose. To administer Lactobacillus, the subjects were given two Culturelle® Health & Wellness capsules, each of which contains Lactobacillus GG (10 billion cells). To administer Bifidobacterium, subjects were given two capsules of Align® Bifantis® Bifidobacterium infantis 35624, which contain 1 billion cfu per capsule. To administer Lactobacillus and Bifidobacterium, subjects were given 1-2 capsules of Dr. Mercola's® Complete Probiotics capsules, each of which contains 35 billion cells including the following species: Lactobacillus acidophilus DDS-1, Lactobacillus casei, Lactobacillus plantarum, Lactobacillus salivarius, Lactobacillus rhamnosus, Lactobacillus brevis, Bifidobacterium lactis, Bifidobacterium longum, Bifidobacterium bifidum, and Streptococcus thermophilus. Subjects were also given 5 mg of zinc, which was provided in liquid form.

With `NC(=O)c1ccc[n+]([C@@H]2O[C@H](COP(=O)([O-])OP(=O)(O)OC[C@H]3O[C@@H](n4cnc5c(N)ncnc54)[C@H](O)[C@@H]3O)[C@@H](O)[C@H]2O)c1` [NAD+, nicotinamide adenine dinucleotide, reference compound] the “actual BAC score” value (FIG. 1, person, 198 pounds, beer and wine, 11:12, twenty minutes after administration, BAC at administration 0.089, projected 0.084) was 0.082, the “effect on the subject's BAC score, actual vs projected” value (“effect … vs projected” below) (FIG. 1 subject) was “no effect” and the signs of intoxication (FIG. 1 subject) was “continued to exhibit signs of intoxication”. The “actual BAC score” value (FIG. 2, person, 188 pounds, beer, 11:12, twenty minutes after administration, BAC at administration 0.085, projected 0.085) was 0.086, the “effect … vs projected” value (FIG. 2 subject) was “minimal or no effect” and the signs of intoxication (FIG. 2 subject) was “continued to exhibit signs of intoxication”. For the same molecule, the “actual BAC score” value (FIG. 3, person, 169 pounds, beer and vodka, 11:12, twenty minutes after administration, BAC at administration 0.086, projected 0.087) was 0.086, the “effect … vs projected” value (FIG. 3 subject) was “little effect” and the signs of intoxication (FIG. 3 subject) was “continued to exhibit signs of intoxication”. The “actual BAC” value (FIG. 9, person, 182 pounds, beer and vodka, 11:32, 40 minutes after NAD+ at 10:52 (BAC 0.088), before Lactobacillus and Bifidobacterium) was 0.056, the “effect on the subject's BAC score, summary of the experiments” value (“effect … of the experiments” for short) was “no effect or only a minimal effect” and the “change in BAC twenty minutes after administration” value (“change in BAC twenty minutes” below) was “increase in BAC”.
In the case of Lactobacillus, the “actual BAC score” value (FIG. 4, person, 122 pounds, wine and vodka, 7:25, twenty minutes after administration, BAC at administration 0.086, projected 0.084) is reported as 0.082, the “effect … vs projected” value (FIG. 4 subject) is reported as “no effect” and the signs of intoxication (FIG. 4 subject) is reported as “continued to exhibit signs of intoxication”. For the same molecule, the “actual BAC score” value (FIG. 5, person, 155 pounds, beer and wine, 7:25, twenty minutes after administration, BAC at administration 0.13, projected 0.129) was 0.12, the “effect … vs projected” value (FIG. 5 subject) was “little effect” and the “actual BAC score” value (FIG. 6, person, 169 pounds, beer and vodka, 7:25, twenty minutes after administration, BAC at administration 0.086, projected 0.074) was 0.067. For the same molecule, the “effect … vs projected” value (FIG. 6 subject) was “little effect”, the “effect … of the experiments” value was “no effect or only a minimal effect” and the “change in BAC twenty minutes” value was “increase in BAC”.
With Bifidobacterium the “actual BAC” value (FIG. 7, person, 146 pounds, wine, 1:20, twenty minutes after administration, BAC at administration 0.159, projected 0.157) was 0.151, the “effect … vs projected” value (FIG. 7 subject) was “little effect” and the “actual BAC” value (FIG. 8, person, 171 pounds, 12:40, twenty minutes after administration, BAC at administration 0.13, projected 0.132) was 0.125. For the same molecule, the “effect … vs projected” value (FIG. 8 subject) was “little effect”, the “effect … of the experiments” value was “no effect or only a minimal effect” and the “change in BAC twenty minutes” value was “increase in BAC”.
